The results in this text go back to PubChem BioAssay (NCI).

What all share (assay): growth of human tumour cells (NCI), 48 h
Experiment [1] relates to CCRF-CEM leukemia.
For experiment [2], the system named is LOX IMVI melanoma.
Experiment [3] has as its system SF-295 CNS.
Experiment [4] concerns OVCAR-8 ovarian.
Experiment [5] relates to 786-0 renal.
Experiment [6] has as its system UO-31 renal.
For experiment [7], the system named is OVCAR-4 ovarian.
For experiment [8], the system named is EKVX NSCLC.
In experiment [9] the test system is SK-MEL-28 melanoma.
Experiment [10] concerns KM12 colon.

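Exposure lasted 48 hours, with cells grown in 96-well plates and compounds tested at five concentrations. At the GI50, growth is halved. TGI denotes the concentration required for complete inhibition of growth.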

As for `O=C(Nc1ccc(S(=O)(=O)Nc2nccs2)cc1)c1cccnc1Nc1cccc(Cl)c1`, the GI50 in experiment [1] is 23.4 µM; in experiment [2] it was 7.31 µM; in experiment [3], 16.5 µM; in [4], 18 µM; in [5], 17.9 µM; in experiment [6], 13.8 µM. The GI50 is 16.3 µM in experiment [7], 18.3 µM in [8], 17.8 µM in experiment [9] and 10.3 µM in experiment [10]. Besides, the TGI in experiment [1] was above 100 µM; in [2], 19.9 µM; in [3], 43.5 µM; in experiment [4] it was 48.4 µM; in [5], 39.9 µM; in experiment [6] it was 32.3 µM. The TGI in experiment [7] was 69.3 µM; in [8] it was above 100 µM; in [9] it was 37.7 µM; in [10], 22.9 µM.

On to `CC(C)(C)NNC(=O)/C(=C/c1ccc(Oc2ccc(Cl)c(Cl)c2)cc1)NC(=O)c1ccccc1`, for which the TGI is above 100 µM in experiment [1]; 40.1 µM in [2]; above 100 µM in experiment [3]; above 100 µM in experiment [4]; above 100 µM in experiment [5]; above 100 µM in experiment [6]. Moreover, the TGI in experiment [7], in experiment [8], in experiment [9] and in experiment [10] was above 100 µM each time.

Take `CCN(CC)CCCN(c1cc(OC)cc2nccnc12)S(=O)(=O)c1ccc(C)cc1`: the TGI in experiment [1], in experiment [2], in experiment [3], in [4], in [5] and in [6] was above 100 µM in each case. Further, the TGI in experiment [7], in experiment [8], in [9] and in experiment [10] was above 100 µM each time.

`Oc1ccc2ccccc2c1C=NCCCN=Cc1c(O)ccc2ccccc12`: the GI50 was 5.26 µM in experiment [1]; 6.89 µM in [2]; 9.96 µM in experiment [3]; 32.4 µM in experiment [4]; 17.4 µM in experiment [5]; 8.4 µM in experiment [6]. In addition, the GI50 in [7] was 35.9 µM; in experiment [8], 17.3 µM; in experiment [9], 15.8 µM; in experiment [10] it was 15.1 µM. For the same molecule, the TGI in experiment [1] is 56.5 µM; in experiment [2] it was 19.4 µM; in experiment [3], 42.1 µM; in experiment [4] it was above 100 µM; in [5] it was 40.7 µM; in [6] it was 52.4 µM. For the same molecule, the TGI is above 100 µM in experiment [7], above 100 µM in experiment [8], above 100 µM in [9] and 36.2 µM in [10].

In the case of `N#CC1=C(N)Oc2cc3c(cc2C1c1cccs1)OCO3` (stereo not given), the GI50 in experiment [1] was 0.404 µM; in experiment [2] it was 0.679 µM; in [3] it was 0.393 µM; in experiment [4] it was 0.587 µM; in experiment [5], 0.686 µM; in experiment [6], 1.24 µM. Moreover, the GI50 is 4.5 µM in experiment [7], 1.21 µM in experiment [8], 1.12 µM in experiment [9] and 0.325 µM in [10]. The TGI in [1] was above 29.8 µM; in experiment [2], above 61.3 µM; in experiment [3] it was above 100 µM; in [4], above 52.7 µM; in experiment [5], above 68.3 µM; in experiment [6], above 100 µM. Besides, the TGI in experiment [7] is above 100 µM; in [8] it was above 100 µM; in [9], above 100 µM; in experiment [10] it was above 59.7 µM.

`O=C1/C(=C/c2cccc([N+](=O)[O-])c2)COc2ccc(O)c(O)c21`: the GI50 in experiment [1] was 0.335 µM; in [2], 0.499 µM; in experiment [3], 3.27 µM; in [4] it was 2.35 µM; in [5] it was 1.35 µM; in experiment [6], 1.07 µM. Besides, the GI50 in [7] is 1.46 µM; in experiment [8], 1.9 µM; in experiment [9], 1.56 µM; in experiment [10] it was 1.68 µM. For the same molecule, the TGI was 2.43 µM in [1]; 1.86 µM in experiment [2]; 11.2 µM in [3]; 13.3 µM in experiment [4]; 2.85 µM in [5]; 2.29 µM in [6]. Further, the TGI was 2.8 µM in [7], 4.1 µM in experiment [8], 2.98 µM in experiment [9] and 3.4 µM in [10].

As to `COc1ccc(C(=O)Cn2c(C(=O)c3ccc(Cl)cc3)nc3ccccc32)cc1`, the GI50 in experiment [1] was 3.02 µM; in [2], 17.5 µM; in experiment [3], 22.8 µM; in experiment [4], above 100 µM; in experiment [5], 13.2 µM; in experiment [6], above 51.2 µM. Further, the GI50 in experiment [7] was above 84.1 µM; in experiment [8], above 42.9 µM; in [9] it was above 22.4 µM; in [10], 4.18 µM. In addition, the TGI is above 100 µM in [1]; above 100 µM in [2]; above 100 µM in experiment [3]; above 100 µM in [4]; above 27.3 µM in experiment [5]; above 100 µM in experiment [6]. Besides, the TGI in experiment [7], in experiment [8], in experiment [9] and in experiment [10] was above 100 µM in each case.

Take `NC(=S)/N=C/c1c(O)c2ccccc2oc1=O`: the TGI in [1], in [2], in experiment [3], in experiment [4], in experiment [5] and in experiment [6] was above 100 µM in each case. The TGI in experiment [7], in [8], in experiment [9] and in [10] was above 100 µM in each case.

Take `CCCN1C(=O)C/C(=C\C(C)=O)Nc2ccccc21`: the TGI in experiment [1], in experiment [2], in experiment [3], in experiment [4], in experiment [5] and in [6] was above 100 µM in each case. Moreover, the TGI in experiment [7], in [8], in experiment [9] and in experiment [10] was above 100 µM each time.
